Data: PMC12362618, “Development of the First Small-Molecule Inhibitor Targeting Oncostatin M for Treatment of Breast Cancer” (Journal of Medicinal Chemistry, 2025)
Read-outs that look alike come from different tables or passages of the source.

Columns and labels:
[1] = system: OSM-induced pSTAT3 in T47D human breast cancer cells; test: pSTAT3 ELISA in T47D cells treated with OSM ± SMI; assay type: cell-based; conditions: for IC50: Homo sapiens
Procedure: (§1) To test the effect of SMIs in vitro, each SMI was incubated with OSM for a period of 1 h at 37 °C, and T47D and MDA-MB-231 human breast cancer cell lines were subsequently treated with OSM (10 ng/mL) and/or SMI-10 (10 μM) analogs for 30 min and measured for pSTAT3 levels via ELISA. The results of these assays are presented graphically in Figure and, for T47D cells, in Table as a percentage of reduction from +OSM alone. For phospho-STAT3 (pSTAT3) ELISAs, T47D MDA-MB-231, and MCF-7 cells were seeded in 12- or 24-well plates at 70–75% confluency and allowed to adhere overnight, after which cells were serum-starved with serum-free RPMI-1640 for 4 h. SMIs (10 μM in DMSO or serially diluted to specified concentrations from a 100 mM stock in DMSO) and human recombinant OSM (10 ng/mL; PeproTech; #300–10T-10UG) were incubated in serum-free RPMI-1640 medium for 1 h. After incubation, the SMI-10 analogs or SMI-10B13 and OSM were added to the serum-starved cells for 30 min. Immediately afterward, the cells were lysed using 1x PathScan Sandwich ELISA Lysis Buffer (Cell Signaling Technology; #7018S), collected, and stored at −20 °C. Lysates were analyzed for pSTAT3 levels using either the PathScan Phospho-STAT3 (Tyr705) Sandwich ELISA Antibody Pair kit (Cell Signaling Technology; #7146) or Human/Mouse Phospho-STAT3 (Y705) DuoSet IC ELISA (R&D Systems; DYC4607B), according to manufacture’s protocol. pSTAT3 expression was measured with absorbance at 450 nm and quantified by comparison relative to OSM-induced pSTAT3 levels. To calculate an IC50 for SMI-10B13, a standard curve was generated as described in the DuoSet IC ELISA datasheet to determine the concentration of pSTAT3.

[2] = target: T1, 15N OSM (Homo sapiens, UniProt P13725); test: 1H,15N HSQC NMR chemical shift perturbation titration; assay type: binding; conditions: 100 μM 15N OSM; residues Asp87, Gln90, Arg91, Leu92 at or near site III
T1 construct: ^15N-isotope-labeled OSM^1-187 protein was titrated individually with each of the SMIs; made in house
T1 sequence (P13725 26-212): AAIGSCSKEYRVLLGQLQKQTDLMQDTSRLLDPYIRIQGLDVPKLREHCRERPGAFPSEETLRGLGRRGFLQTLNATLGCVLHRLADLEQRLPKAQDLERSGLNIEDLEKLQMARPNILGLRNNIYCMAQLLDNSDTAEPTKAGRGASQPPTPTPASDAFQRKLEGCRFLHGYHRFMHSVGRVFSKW
Procedure: Protein was prepared and chemical shift perturbation (CSP) experiments were conducted as previously described by Mass et al. For SMI inhibitor titration studies, in a 5 mm NMR tube, 600 μL of a 100 μM sample of ^15N OSM in NMR buffer (50 mM sodium phosphate (pH 6.6), 100 mM sodium chloride, and 5% D2O) was titrated with a 20 mM stock solution of SMI in d6-dimethyl sulfoxide. The SMI stock solutions were added in 0.75–4 μL increments to a final concentration of 260 μM (SMI-10B) or 200 μM (SMI-10B13) and final volumes of 636 μL (SMI-10B) and 614.25 μL (SMI-10B13). Titration points for SMI-10B were: 0, 20, 40, 60, 80, 100, 140, 180, 220, and 260 μM. Titration points for SMI-10B13 were: 0, 0.5, 1.0, 6.0, 10, 20, 30, 40, 50, 60, and 200 μM.

[3] = target: T2, gp130 binding to immobilized OSM (Homo sapiens, UniProt P13725); test: SPR surface competition binding assay between gp130 and SMI for immobilized OSM; conditions: gp130 50 nM
T2 construct: purchased R&D Systems 671-GP
T2 sequence (P13725 26-212 limits assumed): T1 sequence (P13725 26-212)
Procedure: SPR experiments were performed on a Reichert SR7000 instrument that was fed by a Surveyor LC autosampler and pump. All experiments were conducted at 25 °C. In all experiments, OSM (∼24 kDa; as previously described) was immobilized to the surface of a PEF-10% carboxyl mixed self-assembled monolayer gold sensor chip (Reichert part #13206061), and the experiments were completed within 3 days. The immobilization phase was conducted using sterile-filtered, fresh 10 mM acetate buffer, pH 5, at a flow rate of 15 μL/min. The chip was first washed with 100 μL of 2 M NaCl in DI water and 100 μL of 10 mM NaOH in DI water. The chip was activated with a 100 μL injection of 10 mg/mL N-hydroxysuccinimide (NHS) and 40 mg/mL 1-ethyl-3-(3-dimethylaminopropyl)­carbodiimide (EDC) mixed in 1 mL of nanopure water immediately before injecting. Then, a 200 μg/mL solution of OSM (100–300 μL) in acetate buffer was diluted and injected multiple times with 100 μL injections to achieve a response of about 600–1000 RU. The remaining reactive NHS groups were then deactivated with a 100 μL injection of 1 M ethanolamine hydrochloride in DI H2O. […] The real-time changes in refractive index units of the association and dissociation phases were monitored. […]

[4] = system: OSM-induced pSTAT3 in MDA-MB-231 human breast cancer cells; test: pSTAT3 ELISA in MDA-MB-231 cells treated with OSM ± SMI; assay type: cell-based; conditions: SMI 10 μM, OSM 10 ng/mL, 30 min
Procedure: as §1, with “2 High-throughput virtual screening identifies three novel compounds capable of interacting with site III of OSM. […] (F) Structure of parent SMI-10. Data are presented as mean ± SD relative to + OSM treatment, analyzed by one-way ANOVA with Tukey’s posttest *p < 0.05, **p < 0.01. To test” for “To test”

[5] = Aqueous solubility (comparison in words); assay type: physicochemical; conditions: compared to other analogs
[6] = T47D, SMI 10 μM + OSM 10 ng/mL, 30 min, ELISA, relative to +OSM, no-treatment blank subtracted

Row | SMILES | IC50 ([1]; Figure S3 graph A (T47D by order), four parameter nonlinear regression, given as negative log value, read-out: LogIC50 (graph A) (converted)) [nM] | IC50 ([1]; T47D cells, ELISA, read-out: IC50 for inhibition of STAT3 phosphorylation) [nM] | Relative pSTAT3 Levels (Table 2, SMI-10B analogs) [1, 6] [%] | Relative pSTAT3 Levels (Table 2, SMI-10B analogs) ([1]; T47D, SMI 10 μM + OSM 10 ng/mL, 30 min, ELISA, relative to +OSM, no-treatment blank subtracted, listed as 10B13) [%] | Chemical shift perturbation of 15N OSM on titration [2] | Inhibition of gp130 binding to immobilized OSM ([3]; SMI 100 μM) | IC50 ([3]; SPR surface competition, estimated, read-out: estimated IC50 for inhibition of gp130 binding to immobilized OSM) [nM] | Relative pSTAT3 Levels (Table 1, SMI-10A-10J) [1, 6] [%] | Inhibition of OSM-induced pSTAT3 via ELISA ([1]; T47D, SMI 10 μM, OSM 10 ng/mL, 30 min) | Inhibition of OSM-induced pSTAT3 via ELISA [4] | Aqueous solubility [5]
1 | O=C(O)/C=C/c1cc(-c2ccc3cc[nH]c3c2)c(-c2ccc3cc[nH]c3c2)o1 [SMI-10B13, (E)-3-(4,5-di(1H-Indol-6-yl)furan-2-yl)acrylic Acid] | 136 | 136 | 32.7 | 32.73 | binding to the same site as SMI-10B with a higher affinity | almost completely inhibited | 30000 to 100000 |  |  |  | 
2 | O=C(O)/C=C/c1cc(-c2ccc3c(c2)OCO3)c(-c2ccc3c(c2)OCO3)o1 [SMI-10B, (E)-3-(4,5-Bis(benzo[d][1,3]dioxol-5-yl)furan-2-yl)acrylic acid] |  |  | 30.14 |  | clear shifts in the fast exchange regime |  |  | 12.8 | capable of inhibiting OSM-induced pSTAT3 | capable of inhibiting OSM-induced pSTAT3 | increased aqueous solubility compared to other analogs
